Test results: ChEMBL document CHEMBL1133559, “4-Aryl-2,4-dioxobutanoic acid inhibitors of HIV-1 integrase and viral replication in cells” (J Med Chem, 2000)
“And” between values parts separate entries of the source, which are not always exact repeats. Equal entries are not always repeated.

What was measured:
[1] = target: T1, Human immunodeficiency virus type 1 integrase (Human immunodeficiency virus 1, UniProt Q7ZJM1)
Description: Inhibition of recombinant HIV-1 Integrase in strand transfer enzyme assay.

[2] = tested on: Human immunodeficiency virus 1; assay: In vitro inhibition of (HIV-1 IIIB) replication.; assay type: functional; settings: for IC95: Human immunodeficiency virus 1, read-out: CIC95
[3] = target: T1, Human immunodeficiency virus type 1 integrase; assay: Inhibitory activity was determined against recombinant HIV-1 Integrase (0.1 uM) in strand transfer enzyme assay

T1 sequence (Q7ZJM1 whole entry): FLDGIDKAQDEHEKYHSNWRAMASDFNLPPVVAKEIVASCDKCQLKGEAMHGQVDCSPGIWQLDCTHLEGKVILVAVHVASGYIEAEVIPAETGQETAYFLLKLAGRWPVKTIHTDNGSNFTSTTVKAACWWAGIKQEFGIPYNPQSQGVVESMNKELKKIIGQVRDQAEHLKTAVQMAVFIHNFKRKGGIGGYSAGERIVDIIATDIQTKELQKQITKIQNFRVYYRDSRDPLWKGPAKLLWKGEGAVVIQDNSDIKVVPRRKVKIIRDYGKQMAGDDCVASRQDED

| IC50 [1] | IC50 [3] [nM] | SMILES | IC95 [2] [nM] | CIC95 [2] [µM] |
| --- | --- | --- | --- | --- |
| 1000 nM and 500 nM | – | O=C(O)C(=O)CC(=O)c1cccc(Cc2ccc(Cl)cc2)c1 | 25000 | – |
| < 100 nM | – | COc1ccc(Cc2ccccc2)cc1C(=O)CC(=O)C(=O)O | 620 | – |
| 500 nM and 600 nM | – | O=C(O)C(=O)CC(=O)c1ccn(Cc2ccccc2)c1 | 3000 | – |
| 150 nM | – | COc1ccc(C(=O)CC(=O)C(=O)O)cc1Cc1ccccc1 | 1830 | – |
| 140 nM | – | COc1cc(Cc2ccccc2)cc(C(=O)CC(=O)C(=O)O)c1 | 2080 | – |
| < 100 nM | – | CCOc1ccc(Cc2ccccc2)cc1C(=O)CC(=O)C(=O)O | 150 | 0.25 |
| – | < 100 | CC(C)Oc1ccc(Cc2ccccc2)cc1C(=O)CC(=O)C(=O)O | 100 | – |
| 500 nM | – | O=C(O)C(=O)CC(=O)c1ccc(Cc2ccccc2)s1 | 12500 | – |

Further lines, the compound ahead of its results:

| SMILES | IC50 [1] | IC50 [3] [nM] | IC95 [2] [nM] | CIC95 [2] [µM] |
| --- | --- | --- | --- | --- |
| O=C(O)C(=O)CC(=O)c1csc(Cc2ccccc2)c1 | 160 nM and 100 nM | – | 2500 | – |
| O=C(O)C(=O)CC(=O)c1cccc(Cc2cccc(F)c2)c1 | 250 nM | – | 2080 | – |
| O=C(O)C(=O)CC(=O)c1cccc(Cc2ccccc2F)c1 | < 100 nM | – | 520 | – |
| O=C(O)C(=O)CC(=O)c1cccc(Cc2cccc(Cl)c2)c1 | < 100 nM | – | 940 | – |
| O=C(O)C(=O)CC(=O)c1cccc(Cc2ccc(F)cc2)c1 | < 100 nM | – | 690 | – |
| O=C(O)C(=O)CC(=O)c1ccccc1Cc1ccccc1 | 5670 nM | – | > 50000 | – |
| O=C(O)C(=O)CC(=O)c1cccc(Cc2ccccc2)c1 | < 100 nM | – | 1110 | – |
| O=C(O)C(=O)CC(=O)c1cccn1Cc1ccccc1 | 220 nM | – | 41600 | – |
| O=C(O)C(=O)CC(=O)c1cccc(Cc2ccccc2Cl)c1 | < 100 nM | – | 620 | – |
| O=C(O)C(=O)CC(=O)c1ccsc1Cc1ccccc1 | 180 nM | – | 25000 | – |
| O=C(O)C(=O)CC(=O)c1cccn1Cc1ccc(F)cc1 | – | – | 9600 | – |
| CC(C)(C)NC(=O)[C@@H]1CN(Cc2cccnc2)CCN1C[C@@H](O)C[C@@H](Cc1ccccc1)C(=O)N[C@H]1c2ccccc2C[C@H]1O [INDINAVIR] | – | – | 55 | – |
